Assay results: PMC3842914, “Meleagrin, a New FabI Inhibitor from Penicillium chryosogenum with at Least One Additional Mode of Action” (PLoS ONE, 2013)
Values after ≈ are worked out from the molar mass of the structure shown. Where two headings read alike, the source gives them in different places.

Assays:
[1] = system: incorporation of [1-14C] acetate into membrane fatty acids in S. aureus; assay: [14C] acetate incorporation into membrane fatty acids in S. aureus; assay type: cell-based, Staphylococcus aureus; details: for IC50: Staphylococcus aureus, read-out: IC50 [14C] acetate incorporation; for Inhibition of acetate incorporation relative to the less active compounds 1, 3, and 4: [1-14C] acetate into membrane fatty acids in S. aureus
Experimental: (§1) To monitor the effects of compound 1 on lipid, DNA, RNA, protein, and cell wall biosynthesis, its effects on the incorporation of [1-^14C] acetate (50 mCi/mmol), [2-^14C] thymidine (59.8 mCi/mmol), [U-^14C] uridine (539 mCi/mmol), L-[U-^14C] leucine (306 mCi/mmol) or L-[U-^14C] isoleucine (329 mCi/mmol), and N-acetyl-D-[1-^14C] glucosamine (58.1 mCi/mmol) into S. aureus and S. pneumoniae were measured as described previously. S. aureus was exponentially grown to an A650 of 0.2 in Mueller–Hinton broth. S. pneumoniae was grown in tryptic soy broth supplemented with 5% sheep blood. […] An equal volume of DMSO solvent was added to the untreated control. After incubation with the radiolabeled precursors at 37°C for 1 h, followed by centrifugation, the cell pellets were washed twice with PBS buffer. After acetate incorporation, the total cellular lipids were extracted with chloroform-methanol-water. The incorporated radioactivity in the chloroform phase was measured by scintillation counting. For the other precursors, incorporation was terminated by adding 10% (w/v) TCA and cooling on ice for 20 min. The precipitated material was collected on Whatman GF/C glass microfiber filters, washed with TCA and ethanol, dried, and counted using a scintillation counter. […] In all experiments, known antibacterial agents were included as positive controls.
We measured their effects on the incorporation of [1-^14C] acetate into membrane fatty acids in S. aureus.

[2] = system: incorporation of leucine into proteins in S. aureus; assay: [14C] leucine incorporation into proteins in S. aureus; assay type: cell-based; details: Staphylococcus aureus
Experimental: as §1, with “counter. The total counts incorporated at 1 h of incubation without inhibitors ranged from >7,000 for [U-^14C] uridine to <13,000 for [1-^14C] acetate.” for “counter.”
We measured their effects on the incorporation of [1-^14C] acetate into membrane fatty acids in S. aureus. […] In contrast, the incorporation of leucine into proteins was not inhibited by the active compounds (Table 1), whereas the protein synthesis inhibitor, chloramphenicol, inhibited incorporation (data not shown).

S. pneumoniae FabK = target: T1, S. pneumoniae FabK (Streptococcus pneumoniae, UniProt Q9FBC5); assay: S. pneumoniae FabK enzyme assay; assay type: biochemical
T1 sequence (Q9FBC5 1-324): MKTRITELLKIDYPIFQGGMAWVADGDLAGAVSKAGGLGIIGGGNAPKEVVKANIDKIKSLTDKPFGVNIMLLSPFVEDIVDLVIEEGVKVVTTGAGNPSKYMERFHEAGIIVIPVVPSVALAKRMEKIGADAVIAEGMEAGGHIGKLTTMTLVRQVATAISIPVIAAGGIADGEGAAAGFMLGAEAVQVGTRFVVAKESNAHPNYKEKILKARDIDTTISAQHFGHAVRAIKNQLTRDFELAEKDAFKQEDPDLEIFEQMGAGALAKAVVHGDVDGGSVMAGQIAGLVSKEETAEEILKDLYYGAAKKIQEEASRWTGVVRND
Text: S. aureus FabI and E. coli FabI enzymes were cloned, overexpressed, and purified as described previously. The wild-type fabK gene was amplified by PCR from genomic DNA obtained from Streptococcus pneumoniae KCTC 5412 by using the primers 5′-[…]-3′ and 5′-[…]-3′, which contained NdeI and XhoI restriction sites, respectively. After the DNA sequence was confirmed, the gene was cloned into the pET22b vector (Novagen, Gibbstown, NJ, USA). The construct was transformed into E. coli BL21 (DE3) for expression following induction with isopropylthiogalactoside. The C-terminal His-tagged protein was purified as described previously. Assays were conducted in half-area, 96-well microtiter plates. The compounds were dissolved in DMSO and evaluated in 100-μL assay mixtures containing components specific for each enzyme (see below). Reduction of the trans-2-octenoyl N-acetylcysteamine (t-o-NAC thioester) substrate analog was measured spectrophotometrically following the utilization of NADH or NADPH at 340 nm at 30°C for the linear period of the assay. S. aureus FabI assays contained 50 mM sodium acetate (pH 6.5), 200 μM t-o-NAC thioester, 200 μM NADPH, and 150 nM S. aureus FabI.
NADH was used as a cofactor rather than NADPH for the E. coli FabI assay. Substrate concentrations used for the Lineweaver–Burk plot were 100, 200, 300, and 400 μM, whereas the concentrations of the cofactor were 100, 200, 400, and 600 μM. The rate of decrease in the amount of NADPH in each reaction was measured with a microtiter enzyme-linked immunosorbent assay (ELISA) reader by using the SOFTmax PRO software (Molecular Devices, Sunnyvale, CA, USA). The inhibitory activity was calculated according to the following formula: % of inhibition = 100× [1− (rate in the presence of compound/rate in the untreated control)]. IC50 values were calculated by fitting the data to a sigmoid equation. An equal volume of DMSO solvent was used for the untreated control. FabK assays contained 100 mM sodium acetate (pH 6.5), 2% glycerol, 200 mM NH4Cl, 50 µM t-o-NAC thioester, 200 µM NADH, and 150 nM S. pneumoniae FabK.

S. pneumoniae KCTC 3932 = assay: MIC by broth microdilution, S. pneumoniae KCTC 3932; assay type: cell-based; details: Streptococcus pneumoniae
Experimental: Whole-cell antimicrobial activity was determined by broth microdilution as described previously. The test strains except for S. pneumoniae were grown to mid-log phase in Mueller–Hinton broth and diluted 1,000-fold in the same medium. Cells (10^5/mL) were inoculated into Mueller–Hinton broth and dispensed at 0.2 mL/well into a 96-well microtiter plate. S. pneumoniae was grown in tryptic soy broth supplemented with 5% sheep blood. MICs were determined in triplicate by serial 2-fold dilutions of test compounds. […] Bacterial growth was determined by measuring the absorption at 650 nm by using a microtiter ELISA reader.

[3] = KCTC3932, read-out: MIC S. pneumoniae
[4] = KCTC3932, S. pneumoniae KCTC 3932, read-out: MIC S. pneumoniae
[5] = S. pneumoniae FabK, read-out: IC50 spFabK

| Compound | IC50 [1] [µM] | IC50 [2] [µM] | IC50 (S. pneumoniae FabK) [µM] | MIC (S. pneumoniae KCTC 3932; [3]) [µg/mL] | MIC (S. pneumoniae KCTC 3932; [4]) [µg/mL] | Inhibition of acetate incorporation relative to the less active compounds 1, 3, and 4 [1] | IC50 (S. pneumoniae FabK; [5]) [µM] |
| --- | --- | --- | --- | --- | --- | --- | --- |
| C=CC(C)(C)C12C=C(O)C(=O)N3/C(=C/c4cnc[nH]4)C(=O)NC31N(OC)c1ccccc12 (stereo not drawn) [Compound 1, meleagrin] | 40.3 | > 200 | > 200 | 64 (≈ 148 µM) |  |  |  |
| C=CC(C)(C)C12C=C(OC)C(=O)N3/C(=C/c4cnc[nH]4)C(=O)NC31N(OC)c1ccccc12 (stereo not drawn) [Compound 3, oxaline] | 33.5 | > 200 | > 200 |  | 64 (≈ 143 µM) |  |  |
| C=CC(C)(C)C12C=C(O)C(=O)N3/C(=C/c4cnc[nH]4)C(=O)N(C)C31N(OC)c1ccccc12 (stereo not drawn) [Compound 4, N^14-methylmeleagrin] | 35.7 | > 200 | > 200 | 64 (≈ 143 µM) |  |  |  |
| C=CC(C)(C)C12C=C(OC)C(=O)N3/C(=C/c4cnc[nH]4)C(=O)N(C)C31N(OC)c1ccccc12 (stereo not drawn) [Compound 5, O,N^14-dimethylmeleagrin] | 16.3 | > 200 |  |  | 16 (≈ 34.7 µM) | approximately 2 fold | > 200 |
| C=CC(C)(C)C12C=C(OC)C(=O)N3/C(=C/c4cnc[nH]4)C(=O)N(C)C31Nc1ccccc12 (stereo not drawn) [Compound 6, O,N^14-dimethylglandicolin] | 19.8 | > 200 | > 200 | 16 (≈ 37.1 µM) |  | approximately 2 fold |  |
| C=CC(C)(C)C12C=C(O)C(=O)N3/C(=C/c4cnc[nH]4)C(=O)NC31Nc1c(Br)cccc12 (stereo not drawn) [Compound 7] | > 200 | > 200 |  |  | > 128 |  | > 200 |
| Oc1cc(Cl)ccc1Oc1ccc(Cl)cc1Cl [Triclosan, reference compound] | 0.04 | > 10 | > 200 | 64 (≈ 221 µM) |  |  |  |
